From US20240307370A1, “SIGMA RECEPTOR LIGANDS FOR TREATING SARS-COV-2 INFECTION” (University of Florida Research Foundation, Incorporated, priority 2021, published 2024)
In brackets after ≈: the same amount, converted by molar mass. Read-outs that look alike come from different tables or passages of the source.

Experiments:
SARS-CoV-2 [1] = type: cell-based
SARS-CoV-2 [2] = type: cell-based; conditions: Vero E6, MOI 0.2, 72 h
SARS-CoV-2 [3] = conditions: Vero E6, MOI 0.2, 72 h
H23 cells = assay: Phospholipidosis assay; conditions: 48 h treatment, 100 μg/ml
SARS-CoV-2 [4] = type: cell-based; conditions: H23-hACE2, MOI 0.01, 48 hpi, vs mock treated
SARS-CoV-2 [5] = assay: microbe, parasite or virus in culture; conditions: Severe acute respiratory syndrome coronavirus 2, Vero C1008, 72 h
SARS-CoV-2 [6] = assay: K18-hACE2 mouse SARS-CoV-2 infection model; type: in vivo, mice
[7] = Toxicity of ligand alone (LDH release, CC50); conditions: African green monkey
SARS-CoV-2 [8] = conditions: previously published study; cited from earlier work
sigma-1 over sigma-2 = conditions: cited from earlier work
Vero E6 cells = assay: Toxicity of ligand alone (LDH release, CC50); conditions: drug alone, Vero E6, 72 h, LDH release
SARS-CoV-2 [9] = assay: Plaque reduction assay in Vero E6 monolayers; type: cell-based; conditions: Vero E6, plaques counted at 72 h; for EC50: Severe acute respiratory syndrome coronavirus 2, Vero C1008, 72 h
SARS-CoV-2 [10] = conditions: cited from earlier work
SARS-CoV-2 [11] = conditions: cited from earlier work; remark: listed apart in the source
[12] = read-out: Cytotoxicity EC50 (inhibition of SARS-CoV-2-induced cytotoxicity)
[13] = read-out: EC50 for inhibition of SARS-CoV-2 induced cytotoxicity
[14] = 45 mg/kg daily intraperitoneal from 24 hours after infection

O=c1sc2cc(CCCF)ccc2n1CCN1CCCCCC1 [CM304]
more virus detected (RNA levels) compared to the 48 hours DMSO control (SARS-CoV-2 [1]): 61.2%
reduction of cytopathic effects (CPE) by microscopy (SARS-CoV-2 [2]): unable to visibly reduce CPE
inhibition of SARS-CoV-2-induced cytotoxicity (SARS-CoV-2 [3]): insignificant viral inhibition
phospholipidosis level (H23 cells): highest mean levels of phospholipidosis

CN(C)CCOC(c1ccccc1)c1ccccc1 [diphenhydramine, reference compound]
reduction of N-protein RNA copies (qPCR) (SARS-CoV-2 [1]): 32.2%
decrease of SARS-CoV-2 concentration (TCID50) (SARS-CoV-2 [4]; 40 μg/ml): ~2 log
EC50 (SARS-CoV-2 [5]; [12]): 122 mg/L
EC50 (SARS-CoV-2 [5]; [13]): 418 µM

COc1cc2c(cc1OC)CN(CCCCn1c(=O)n(C)c3ccccc31)CC2 [CM398, 1-(4-(6,7-Dimethoxy-3,4-dihydroisoquinolin-2(1H)-yl)butyl)-3-methyl-1H-benzo[d]imidazol-2(3H)-one]
viral replication reduced by (qPCR) (SARS-CoV-2 [1]): 97.5%
decrease of SARS-CoV-2 concentration (TCID50) (SARS-CoV-2 [4]; 100 μg/ml): ~1 log
reduction of cytopathic effects (CPE) by microscopy (SARS-CoV-2 [2]): greatly reduce cytopathic effects
weight loss associated with COVID-19 (SARS-CoV-2 [6]; [14]): delayed weight loss
median survival (SARS-CoV-2 [6]; 45 mg/kg daily intraperitoneal from 24 hours after infection, saline 5.5 days, not statistically significant): 6.5 days
survival and recovery (SARS-CoV-2 [6]; 45 mg/kg daily intraperitoneal, group of 5 mice): One mouse in the CM398 group survived and regained all weight lost
EC50 (SARS-CoV-2 [5]; [12]): 51.3 mg/L
EC50 (SARS-CoV-2 [5]; [13]): 130 µM
CC50 at 72 h [7]: 111 mg/L (≈ 280 µM)

CCC(CC)COC(=O)[C@H](C)N[P@](=O)(OC[C@H]1O[C@@](C#N)(c2ccc3c(N)ncnn23)[C@H](O)[C@@H]1O)Oc1ccccc1 [remdesivir]
reported SI (CC50/EC50) (SARS-CoV-2 [8]): > 4.96

COc1ccc(CCN2CCN(CCCc3ccccc3)CC2)cc1OC [SA4503, cutamesine, reference compound]
viral replication reduced by (qPCR) (SARS-CoV-2 [1]): 56.2%
reduction of cytopathic effects (CPE) by microscopy (SARS-CoV-2 [2]): unable to visibly reduce CPE
Cytotoxicity EC50 (inhibition of SARS-CoV-2-induced cytotoxicity) (SARS-CoV-2 [3]; LDH release): 110.5 mg/L
EC50 (SARS-CoV-2 [3]; read-out: EC50 for inhibition of SARS-CoV-2 induced cytotoxicity, LDH release): 300 µM
preference for sigma-1 over sigma-2 (sigma-1 over sigma-2): > 15 fold
Cytotoxicity CC50 (Vero E6 cells): 198.7 mg/L

CC(CCCn1c(=O)sc2cc(F)ccc21)N1CCN(C2CCCCC2)CC1 (centres unmarked) [AZ66]
EC50 (SARS-CoV-2 [9]; read-out: EC50 by plaque reduction assay): 15.9 µM
EC50 (SARS-CoV-2 [9]; read-out: Plaque reduction EC50): 6.46 mg/L
Plaque reduction EC50 (SARS-CoV-2 [9]): 6.47 mg/L
viral replication reduced by (qPCR) (SARS-CoV-2 [1]): 99.9%
viral replication reduction (qPCR) (SARS-CoV-2 [1]): 3 log
decrease of SARS-CoV-2 concentration (TCID50) (SARS-CoV-2 [4]; 50 μg/ml): ~3 log
reduction of cytopathic effects (CPE) by microscopy (SARS-CoV-2 [2]): greatly reduce cytopathic effects
weight loss associated with COVID-19 (SARS-CoV-2 [6]; [14]): delayed weight loss
EC50 (SARS-CoV-2 [5]; [12]): 45.1 mg/L
EC50 (SARS-CoV-2 [5]; [13]): 86.4 µM
CC50 at 72 h [7]: 128 mg/L (≈ 315 µM)

COc1cccc2c1CCCC2CCCN1CCN(C2CCCCC2)CC1 (centres unmarked) [PB28]
in vitro SARS-CoV-2 inhibitory effects (SARS-CoV-2 [10]): sub-nanomolar
in vivo efficacy (SARS-CoV-2 [11]): ineffective
in vivo toxicity (SARS-CoV-2 [11]): toxic
